The source of these data is ChEMBL document CHEMBL4699440, “Comprehensive review on the anti-bacterial activity of 1,2,3-triazole hybrids” (Eur J Med Chem, 2019).

As usually defined, the MIC is the least concentration at which growth counts as inhibited. Read a high MIC as a less susceptible organism.

The subject of one series is Escherichia coli. Put plainly: Potency index, ratio of ciprofloxacin MIC to test compound MIC for antimicrobial activity against Escherichia coli MTCC 1652 incubated for […] by two-fold serial dilution method. Format: functional.
The subject of series [1] is Bacillus subtilis. As to the kind of experiment: Potency index, ratio of ciprofloxacin MIC to test compound MIC for antimicrobial activity against Bacillus subtilis MTCC 441 incubated for 24 hrs by two-fold serial dilution method. Format: functional.
The subject of the next series is Aspergillus brasiliensis. Put plainly: Antifungal activity against Aspergillus brasiliensis MTCC 1344 incubated for 7 days by microdilution method. The class given is functional. Conditions: MTCC 1344, 168 h, time 7 day.
A further series has as its system Candida albicans. As to the kind of experiment: Antifungal activity against Candida albicans MTCC 227 incubated for 2 days by microdilution method. Format: functional. Conditions: MTCC 227, 48 h, time 2 day.
Series [2] has as its system Pseudomonas aeruginosa. Put plainly: Potency index, ratio of ciprofloxacin MIC to test compound MIC for antimicrobial activity against Pseudomonas aeruginosa MTCC 424 incubated for 24 hrs by two-fold serial dilution method. The class given is functional.
Series [3] deals with Staphylococcus aureus. As to the kind of experiment: Antibacterial activity against Staphylococcus aureus MTCC 7443 incubated for 24 hrs by two-fold serial dilution method. The class given is functional.
In series [4] the test system is Bacillus subtilis. As to the kind of experiment: Antibacterial activity against Bacillus subtilis MTCC 441 incubated for 24 hrs by two-fold serial dilution method. Format: functional.
Series [5] deals with Staphylococcus aureus. Put plainly: Potency index, ratio of ciprofloxacin MIC to test compound MIC for antimicrobial activity against Staphylococcus aureus MTCC 7443 incubated for 24 hrs by two-fold serial dilution method. Format: functional.
The subject of series [6] is Pseudomonas aeruginosa. Put plainly: Antibacterial activity against Pseudomonas aeruginosa MTCC 424 incubated for 24 hrs by two-fold serial dilution method. The class given is functional.
Series [7] can be described thus: Cytotoxicity against human KB cells. Format: cell-based. Conditions: human, KB cells; read-out: MIC.

Values after ≈ are worked out from the molar mass of the structure shown. Numbered stars: 1 amine (or outer) side, 2 acyl side, 3 side chain; on linkers, the order of the positions; unused ones are H or OH. Square brackets hold non-standard residues; d marks the D form. Peptide text beside a SMILES is read from it. * marks the point of attachment. X1 = CC(C)(C(=O)c1ccc(C(F)(F)F)cc1)C(=O)*; βPro(3R) = O=C([C@@H]1CCN([*:1])C1)[*:2]; Phe(ol) = N[C@H](CO)Cc1ccccc1; Aib = CC(C)(N)C(=O)O

On to `O=C(Cn1cc(COc2ccc(OCc3cn(CC(=O)Nc4ccc([N+](=O)[O-])cc4)nn3)cc2)nn1)Nc1ccc([N+](=O)[O-])cc1`, for which the Ratio in the series with Escherichia coli, in the series on Bacillus subtilis [1], with Pseudomonas aeruginosa [2] and in the series with Staphylococcus aureus [5] was 2 in each case. For the same compound, the MIC in the series on Aspergillus brasiliensis, in the series with Candida albicans, in the series on Staphylococcus aureus [3], against Bacillus subtilis [4] and against Pseudomonas aeruginosa [6] was 0.0199 µM (≈ 0.0125 µg/mL) throughout.
In the case of `CC(C)C[C@H](NC(=O)CNC(=O)C(C)(C)NC(=O)[C@@H](NC(=O)C(C)(C)NC(=O)[C@H](CCC(N)=O)NC(=O)[C@H](C)NC(=O)C(C)(C)NC(=O)[C@H](C)NC(=O)C(C)(C)NC(=O)[C@@H]1CCN(C(=O)C(C)(C)C(=O)c2ccc(C(F)(F)F)cc2)C1)C(C)C)C(=O)NC(C)(C)C(=O)N1CCC[C@H]1C(=O)N[C@H](C(=O)NC(C)(C)C(=O)NC(C)(C)C(=O)N[C@@H](CCC(N)=O)C(=O)N[C@@H](CCC(N)=O)C(=O)N[C@H](CO)Cc1ccccc1)C(C)C` (X1-[βPro(3R)][Aib]A[Aib]AQ[Aib]V[Aib]GL[Aib]PV[Aib][Aib]QQ[Phe(ol)]), the MCC in series [7] amounted to 2.9 µg/mL.
